Test results: ChEMBL document CHEMBL1127581, “Evolution of a novel series of [(N,N-dimethylamino)propyl]- and piperazinylbenzanilides as the first selective 5-HT1D antagonists” (J Med Chem, 1994)

Experiments:
[1] = target: 5-hydroxytryptamine receptor 1D (Cavia porcellus) (UniProt Q60484); assay: Compound at 45 mg/kg was tested for the inhibition of hypothermia in the guinea pig caused by stimulation of central 5-hydroxytryptamine 1D receptors by the agonist GR-46611; assay type: functional, organism-based; set-up: dose 45 mg/kg
[2] = target: 5-hydroxytryptamine receptor 1D (Cavia porcellus) (UniProt Q60484); assay: Oral effective dose against hypothermia in the guinea pig caused by stimulation of central 5-hydroxytryptamine 1D receptors by the agonist GR-46611; assay type: functional
Canis familiaris = species on record: Canis familiaris; assay: Tested in vitro for its ability to block 5-HT induced contractile responses in dog isolated saphenous vein; assay type: functional, Canis lupus familiaris
Oryctolagus cuniculus [3] = species on record: Oryctolagus cuniculus; assay: Tested for its ability to block 5-HT2A induced contractile responses in rabbit isolated aorta; assay type: functional
[4] = target: 5-hydroxytryptamine receptor 1D (Cavia porcellus, UniProt Q60484); assay: In vitro binding affinity towards 5-hydroxytryptamine 1D receptor in guinea-pig striatum in presence of BMY-7378 and mesulergine; assay type: tissue-based
Oryctolagus cuniculus [5] = species on record: Oryctolagus cuniculus; assay: Tested in vitro for its ability to block 5-HT2A induced contraction of rabbit isolated aorta; assay type: functional
[6] = target: 5-hydroxytryptamine receptor 1B (Rattus norvegicus, UniProt P28564); assay: In vitro binding affinity towards 5-hydroxytryptamine 1B receptor in rat striatal membrane with [125I]- iodocyanopindolol; assay type: cell membranes, Striatum
[7] = target: T1, 5-hydroxytryptamine receptor 1A (Rattus norvegicus, UniProt P19327); assay: Binding affinity towards 5-hydroxytryptamine 1A receptor in rat hippocampus using [3H]8-OH-DPAT; assay type: tissue-based
T1 sequence (P19327 whole entry): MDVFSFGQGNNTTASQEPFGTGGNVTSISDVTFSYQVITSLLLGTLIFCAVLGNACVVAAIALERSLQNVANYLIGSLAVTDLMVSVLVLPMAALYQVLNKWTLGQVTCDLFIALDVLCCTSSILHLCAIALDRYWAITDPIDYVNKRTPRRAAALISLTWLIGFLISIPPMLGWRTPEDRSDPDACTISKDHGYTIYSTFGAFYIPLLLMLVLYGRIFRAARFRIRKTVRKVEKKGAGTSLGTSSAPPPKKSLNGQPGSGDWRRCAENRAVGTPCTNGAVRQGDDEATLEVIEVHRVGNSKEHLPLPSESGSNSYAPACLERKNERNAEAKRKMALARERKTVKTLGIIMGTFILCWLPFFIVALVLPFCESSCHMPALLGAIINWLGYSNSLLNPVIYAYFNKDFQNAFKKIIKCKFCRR

[8] = target: 5-hydroxytryptamine receptor 1D (Cavia porcellus) (UniProt Q60484); assay: Oral effective dose against hypothermia in the guinea pig caused by stimulation of central 5-hydroxytryptamine 1D receptors by the agonist GR-46611;range is 0.2-1.2; assay type: functional
[9] = target: 5-hydroxytryptamine receptor 1D (Cavia porcellus) (UniProt Q60484); assay: Compound at 50 mg/kg was tested for the inhibition of hypothermia in the guinea pig caused by stimulation of central 5-hydroxytryptamine 1D receptors by the agonist GR-46611; assay type: functional, organism-based; set-up: dose 50 mg/kg
[10] = target: 5-hydroxytryptamine receptor 1D (Cavia porcellus) (UniProt Q60484); assay: Oral effective dose against hypothermia in the guinea pig caused by stimulation of central 5-hydroxytryptamine 1D receptor by the agonist GR-46611; assay type: functional
[11] = target: 5-hydroxytryptamine receptor 1D (Cavia porcellus) (UniProt Q60484); assay: Compound at oral dose of 45 mg/kg was tested for percent inhibition against 5-hydroxytryptamine 1D receptor causes hypothermia in guinea pig; assay type: functional, organism-based; set-up: dose 45 mg/kg
[12] = target: T1, 5-hydroxytryptamine receptor 1A; assay: Binding affinity towards 5-hydroxytryptamine 1A receptor in rat hippocampus with [3H]8-OH-DPAT; assay type: tissue-based
[13] = target: 5-hydroxytryptamine receptor 1D (Cavia porcellus) (UniProt Q60484); assay: Oral effective dose against hypothermia in the guinea pig caused by stimulation of central 5-hydroxytryptamine 1D receptors by the agonist GR-46611; range is 2-9; assay type: functional
[14] = target: 5-hydroxytryptamine receptor 1D (Cavia porcellus) (UniProt Q60484); assay: Compound at 3 mg/kg was tested for the inhibition of hypothermia in the guinea pig caused by stimulation of central 5-hydroxytryptamine 1D receptors by the agonist GR-46611; assay type: functional, organism-based; set-up: dose 3 mg/kg

Chain of 5-hydroxytryptamine receptor 1D (Cavia porcellus) (Q60484 whole entry): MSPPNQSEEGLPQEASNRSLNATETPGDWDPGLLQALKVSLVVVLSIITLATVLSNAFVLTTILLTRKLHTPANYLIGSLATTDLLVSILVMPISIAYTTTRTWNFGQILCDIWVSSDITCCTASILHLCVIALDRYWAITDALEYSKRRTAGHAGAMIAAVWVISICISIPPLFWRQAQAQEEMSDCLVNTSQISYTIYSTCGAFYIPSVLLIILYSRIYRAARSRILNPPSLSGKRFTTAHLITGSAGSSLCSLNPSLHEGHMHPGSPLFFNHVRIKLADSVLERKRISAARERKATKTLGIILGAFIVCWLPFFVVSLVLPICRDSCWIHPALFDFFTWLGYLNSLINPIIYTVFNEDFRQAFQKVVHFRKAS
Chain of 5-hydroxytryptamine receptor 1D (Q60484 whole entry): as above
Chain of 5-hydroxytryptamine receptor 1B (P28564 whole entry): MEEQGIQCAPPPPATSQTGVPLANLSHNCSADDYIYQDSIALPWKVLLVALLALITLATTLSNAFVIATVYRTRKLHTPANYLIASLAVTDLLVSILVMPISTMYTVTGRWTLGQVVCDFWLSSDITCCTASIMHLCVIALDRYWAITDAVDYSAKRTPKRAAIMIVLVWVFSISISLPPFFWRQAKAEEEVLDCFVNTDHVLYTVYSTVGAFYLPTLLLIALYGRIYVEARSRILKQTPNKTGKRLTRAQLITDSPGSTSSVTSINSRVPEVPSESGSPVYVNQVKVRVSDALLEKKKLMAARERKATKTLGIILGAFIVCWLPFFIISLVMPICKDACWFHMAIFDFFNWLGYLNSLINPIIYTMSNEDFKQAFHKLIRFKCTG

SMILES | ED50 [2] | Ki [4] | Ki [7] | pKB (Canis familiaris) | pKB (Oryctolagus cuniculus [3]) | pKB (Oryctolagus cuniculus [5]) | other results
COc1ccc(C(=O)Nc2ccc(-c3ccc(CO)cc3C)cc2)cc1CCCN(C)C | 45 mg/kg | – | – | 8.5 | 5.9 | – | inhibition [1]: 52%
COc1ccc(C(=O)Nc2ccc(-c3ccc(-c4noc(C)n4)cc3C)cc2)cc1N1CCN(C)CC1 | – | 6.31 nM | 1260 nM | 8.2 | – | 7.8 | Ki [6]: 6.31 nM; ED50 [8]: 0.5 mg/kg
COc1ccc(C(=O)Nc2ccc(-c3ccncc3)cc2)cc1CCCN(C)C | – | 10 nM | 20000 nM | 7.8 | 6.3 | – | inhibition [9]: < 30%
COc1ccc(C(=O)Nc2ccc(-c3ccc(C(=O)O)cc3C)cc2)cc1CCCN(C)C | – | 31.6 nM | > 10000 nM | 8.7 | 5.7 | – | –
COc1ccc(C(=O)Nc2ccc(-c3ccc(C=O)cc3C)cc2)cc1CCCN(C)C | 45 mg/kg | 6.31 nM | 5010 nM | 8.4 | 6.3 | – | inhibition [11]: < 30%
CCOc1ccc(NC(=O)c2ccc(OC)c(CCCN(C)C)c2)cc1 | – | – | – | 6.9 | 6.2 | – | –

More lines, in order of falling Ki [4], values ahead:

ED50 [2] | Ki [4] | Ki [7] | SMILES | pKB (Canis familiaris) | pKB (Oryctolagus cuniculus [3]) | pKB (Oryctolagus cuniculus [5]) | other results
– | 5.01 nM | 251 nM | COc1ccc(NC(=O)c2ccc(-c3ccc(C(=O)N(C)C)cc3C)cc2)cc1N1CCN(C)CC1 | 9.2 | – | 4.9 | Ki [6]: 6.31 nM; ED50 [10]: 0.67 mg/kg
– | 5.01 nM | – | COc1ccc(NC(=O)c2ccc(-c3ccncc3)cc2)cc1N1CCN(C)CC1 | 8 | – | 6.5 | Ki [12]: 1260 nM; ED50 [13]: 5 mg/kg
> 45 mg/kg | 3.16 nM | – | COc1ccc(C(=O)Nc2ccc(-c3ccncc3)cc2)cc1N1CCN(C)CC1 | 7.9 | – | 6.5 | –
45 mg/kg | 3.16 nM | – | COCCOC(=O)c1ccc(-c2ccc(NC(=O)c3ccc(OC)c(CCCN(C)C)c3)cc2)c(C)c1 | 8.4 | 6.2 | – | inhibition [1]: 55%; inhibition [14]: 66%
